Source: BindingDB's records for patent US10308662 (Signal Rx Pharmaceuticals, 2019)

Target: T1, Bromodomain-containing protein 4 [349-460] (Homo sapiens, UniProt O60885)
T1 construct: 349-460
Experiment: in vitro […] inhibition assay
Excerpt: Inhibitory activity can be determined routinely using known methods and also from commercial vendors offering this service for kinases and bromodomain proteins. […] The activity of a compound of the invention as an inhibitor of a bromodomain-containing protein, such as a BET protein, such as BRD2, BRD3, BRD4, and/or BRDT, or an isoform or mutant thereof, may be determined in vitro, in vivo, or in a cell line. In vitro assays include assays that determine inhibition of bromodomain-containing proteins. Alternatively, inhibitor binding may be determined by running a competition experiment where a provided compound is incubated with a bromodomain-containing protein, such as a BET protein bound to known ligands, labeled or unlabeled. For example, bromodomain inhibition can be determined in vitro using Alpha Screen Technology (http://www.reactionbiology.com/webapps/site/NewsPDFs/Bromodomain%20Assay%20Platform%20for%20Drug%20Screening%20and%20Discovery.pdf).

## CCOC(=O)c1ccc(-c2csc3c(=O)cc(N4CCSCC4)oc23)cc1 [US10308662, Compound 125]
  IC50: 1870 nM
